Measured values taken from PMC8010149, “A Therapeutic Strategy to Combat HIV-1 Latently Infected Cells With a Combination of Latency-Reversing Agents Containing DAG-Lactone PKC Activators” (Frontiers in Microbiology, 2021).

Tests used:
[1] = Pharmacokinetics in mice, plasma concentration by LC-MS/MS; assay type: in vivo; conditions: BALB/c mice, 10 mg/kg subcutaneous
Method: Blood was drawn from mice at 0.5, 1, 3, 6, 12, and 24 h after subcutaneous administration of YSE028 at a dose of 10 mg/kg. Plasma samples were prepared on ice. Blood was collected in a heparin tube and then separated at 5,000 rpm for 10 min at 4°C. Two hundred microliter of MeOH was added to 40 μl of mouse plasma immediately after plasma collection to terminate the enzymatic hydrolysis of YSE028 during sample preparation. All samples were vortexed for 10s and centrifuged at 12,000 g for 10 min at 4°C. The supernatant was then separated. Alectinib (10 ng/ml) in MeOH was used as an internal standard (IS) and added to the supernatant for liquid chromatography tandem mass spectrometry (LC-MS/MS) analysis.
A Nexera X2 UHPLC system (Shimadzu, Kyoto, Japan) connected to a QTRAP5500 mass spectrometer (AB SCIEX, Framingham, MA, United States) was used for LC-MS/MS analysis. The separation of YSE028 and alectinib (IS) was performed using an XBridge C18 column (2.1 × 50 mm, 3.5 μm, Waters). The mobile phases consisted of 10 mM ammonium formate (A) and MeOH (B). The run time was 6 min with a flow rate of 0.5 ml/min. The oven temperature was set to 40°C, and the autosampler chamber was maintained at 4°C. The gradient elution program was set as follows: 0–3.0 min, 60–80% B; 3.1 min–4.0 min, 95% B; and 4.1 min–6 min, 60% B. The sample injection volume was 5 μl. The electrospray ionization interface in positive mode was used to perform tandem mass spectrometry (MS/MS). The MRM transition for YSE028 was m/z 313.1→187.1. The MS parameters were optimized as follows: desolvation temperature, 500°C; curtain gas (CUR), 40; collision gas (CAD), 7; ionspray voltage (IS), 4500v; ion source gas (GS1), 50 psi; ion source gas (GS2), 80 psi; declustering potential (DP), 110 v; entrance potential (EP), 10v; collision energy (CE), 13v; collision cell exit potential (CXP), 20v.

[2] = tested on: HIV-1 latently infected ACH-2 cells; assay: Intracellular HIV-1 p24 by flow cytometry in ACH-2 cells; assay type: cell-based; conditions: 24 h
Method: The reactivation of HIV-1 from latently infected cells was determined by intracellular p24 protein expression and quantification of p24 antigen in the supernatant (ACH-2 and U1 cells), or by changes in intracellular green fluorescent protein (GFP) expression (J-Lat 10.6 cells). J-Lat ([Jordan et al., 2003]), ACH-2, or U1 cells (5 × 10^5 cells/ml) were seeded in 96-well plates and incubated with different drug concentrations for 24 h to collect the cells. The supernatant was collected after 48 h. The increase in supernatant p24 antigen levels was measured using a Lumipulse G1200 (FUJIREBIO, Tokyo, Japan). J-Lat cells (5 × 10^5 cells/ml) were placed in 48-well plates and incubated with different drug concentrations for 24 h. Intracellular p24 protein expression and GFP-positive cells were analyzed by flow cytometry.
The amount of intracellular HIV-1 p24 and the active form of caspase-3 were determined by flow cytometry, as previously described ([Matsuda et al., 2015], [2019]). In brief, ACH-2 and U1 cells (2.5 × 10^5 cells/ml) were fixed with 1% paraformaldehyde/PBS for 20 min and permeabilized with Flow Cytometry Perm Buffer (TONBO Biosciences, San Diego, CA, United States). After 5 min of incubation at room temperature, the cells were stained with FITC anti-HIV-1 p24 (24-4) monoclonal antibody (mAb; Santa Cruz Biotechnology, Dallas, TX, United States) or Alexa Fluor 647-conjugated anti-active caspase-3 (C92-605) mAb (BD Pharmingen, San Diego, CA, United States) for 30 min on ice. For T cell activation and exhaustion marker staining, PBMCs from healthy donors separated by the above density gradient centrifugation method were incubated with fixable viability stain Ghost Dye 780 (TONBO Biosciences) for 30 min on ice. The cells were then stained with Brilliant Violet 510 anti-human CD3 (UCHT1) mAb (BioLegend), FITC anti-human CD4 (RPA-T4) mAb (TONBO Biosciences), PE-Cy7 anti-human CD8a (RPA-T8) mAb (TONBO Biosciences), PerCP-Cy5.5 anti-human CD38 (HB-7) mAb (BioLegend), PE anti-human CD69 (FN50) mAb (BioLegend), or Alexa Fluor 647 anti-human CD279/PD-1 (EH12.1) mAb (BD Biosciences, San Jose, CA, United States) for 30 min on ice. Next, the cells were analyzed using BD FACSVerse (BD Biosciences). In the analysis, unstained cells were used as a negative control to set the gating for each experiment. The collected data were analyzed using FlowJo software (Tree Star, San Carlos, CA, United States).

CCCC(CCC)C(=O)OCC1(CO)CC(=C(C)C)C(=O)O1 (stereo not drawn) [YSE028]
time within which the concentration in blood decreased rapidly [1]: ≤ 3 h | peak concentration (median) ([1]; plasma): 5.14 ng/mL | Tmax ([1]; mouse, sc, plasma, read-out: time of peak concentration): 1 h | intracellular p24-positive live cells (flow cytometry quadrant) ([2]; 0.1 µM): 0.889 | intracellular p24-positive live cells (flow cytometry quadrant) ([2]; 1 µM): 62 | intracellular p24-positive live cells (flow cytometry quadrant) ([2]; 10 µM): 79.1
